Results from patent publication US20090030005A1, “Combinations for the treatment of cancer” (AMGEN INC., priority 2007, published 2009).
pIC50: −log10 of the molar value. Read-outs that look alike come from different tables or passages of the source.

Assays:
Type in all cases: cell-based
MiaPaCa-2 cells = test: 14C-thymidine incorporation assay, IC20 determination (MTAP status not specified); conditions: Homo sapiens, MIA PaCa-2; same thymidine incorporation assay as Example 2
Method: (§1) CDK4 inhibitor in MTAP^+/+ and MTAP^−/− MiaPaCa-2 cells. The IC50 of a CDK4 inhibitor was determined in the MTAP+/+ and MTAP−/− MiaPaCa-2 cells using a thymidine incorporation assay. MTAP^−/− and MTAP^+/+ MiaPaCa-2 cells from Example 1 were seeded at 2×10^4 cells/ml in 100 μl per well in Costar T plates (Amersham Biosciences). Twenty-four hours later a dose response of a CDK4 inhibitor PD-0332991 (1 nM; 3 nM, 10 nM, 30 nM, 100 nM, 300 nM, 1 μM, 3 μM, 10 μM and 30 μM concentrations) was added to triplicate wells. ^14C-Thymidine (0.1 μCi, Amersham) was added to each well for a final total volume of 200 μL. Plates were read on a beta counter for incorporation of the radioactive thymidine as a measure of cell viability at time 0, 24, 48, 72 and 96 hours. Data was calculated as the mean and standard deviation of triplicate samples divided by the mean and standard deviation of untreated control samples to yield percent of control.
Alanosine or MTX were then dosed at the IC20 concentrations together with a dose response of the CDK4 inhibitor with or without adenine or MTA.

MTAP+/+ MiaPaCa-2 cells = test: 14C-thymidine incorporation assay (cell viability) in MTAP+/+ MiaPaCa-2 cells; conditions: for pIC50: Homo sapiens
Method: (§2) Generation of MTAP^+/+ and MTAP^−/− MiaPaCa-2 cells. MiaPaCa-2 pancreatic cells, which harbor a homozygous deletion in MTAP (MTAP^−/−) were obtained from ATCC. Cells were infected with either a control virus (pLPC) or a virus expressing MTAP (pLPC-MTAP). Infected cells were selected by puromycin resistance and maintained in 0.5 μg/ml puromycin. MTAP expression in MTAP^+/+ MiaPaCa-2 cells was confirmed by QPCR.
as §1
(§3) Combination of de novo purine biosynthesis inhibitor and CDK4 inhibitor in MTAP^+/+ cells with adenine. MTAP^+/+ MiaPaCa-2 cells from Example 1 were seeded at 2×10^4 cells/ml in 100 μl per well in Costar T plates (Amersham Biosciences). Twenty-four hours later a dose response of a CDK4 inhibitor PD-0332991 (1 nM; 3 nM, 10 nM, 30 nM, 100 nM, 300 nM, 1 μM, 3 μM, 10 μM and 30 μM concentrations) was added to triplicate wells with or without 1.7 μM (IC20) of alanosine. Some cells were also treated with 20 μM adenine (Sigma) as rescue substrate. ^14C-Thymidine (0.1 μCi, Amersham) was added to each well for a final total volume of 200 μL. Plates were read for incorporation of the radioactive thymidine as a measure of cell viability on a beta counter at time 0, 24, 48, 72 and 96 hours. Data was calculated as the mean and standard deviation of triplicate samples divided by the mean and standard deviation of untreated control samples to yield percent of control.
Combination of de novo purine biosynthesis inhibitor and CDK4 inhibitor in MTAP^+/+ cells with MTA. MTAP^+/+ MiaPaCa-2 cells from Example 1 were seeded at 2×10^4 cells/ml in 100 μl per well in Costar T plates (Amersham Biosciences).
as §3, with “Twenty-four” for “Combination of de novo purine biosynthesis inhibitor and CDK4 inhibitor in MTAP^+/+ cells with adenine. MTAP^+/+ MiaPaCa-2 cells from Example 1 were seeded at 2×10^4 cells/ml in 100 μl per well in Costar T plates (Amersham Biosciences). Twenty-four”, “MTA” for “adenine”
(§4) Combination of MTX and CDK4 inhibitor in MTAP^+/+ cells. MTAP^+/+ MiaPaCa-2 cells from Example 1 were seeded at 2×10^4 cells/ml in 100 μl per well in Costar T plates (Amersham Biosciences). Twenty-four hours later a dose response of a CDK4 inhibitor PD-0332991 (1 nM; 3 nM, 10 nM, 30 nM, 100 nM, 300 nM, 1 μM, 3 μM, 10 μM and 30 μM concentrations) and thymidine (20 μM, Sigma) was added to triplicate wells with or without 20 nM (IC20) of MTX. ^14C-Thymidine (0.1 μCi, Amersham) was added to each well for a final total volume of 200 μL. Plates were read for incorporation of the radioactive thymidine as a measure of cell viability on a beta counter at time 0, 24, 48, 72 and 96 hours.

MTAP-/- MiaPaCa-2 cells = test: 14C-thymidine incorporation assay (cell viability) in MTAP-/- MiaPaCa-2 cells; conditions: for pIC50: Homo sapiens
Method: as §2, §1
as §3, with “MTAP^−/−” for “MTAP^+/+”
as §3, with “MTAP^−/−” for “MTAP^+/+”, “MTA. MTAP^−/−” for “adenine. MTAP^+/+”, “MTA” for “adenine”
as §4, with “MTAP^−/−” for “MTAP^+/+”

With CN(Cc1cnc2nc(N)nc(N)c2n1)c1ccc(C(=O)N[C@@H](CCC(=O)O)C(=O)O)cc1 [MTX, Methotrexate] as the compound, how does the IC20 (MiaPaCa-2 cells) read?
Its IC20 is 0.002 µM.

With CC(=O)c1c(C)c2cnc(Nc3ccc(N4CCNCC4)cn3)nc2n(C2CCCC2)c1=O [PD-0332991] as the compound, how does the pIC50 (MTAP+/+ MiaPaCa-2 cells; MIA PaCa-2, Example 2, first experiment, CDK4 inhibitor alone, MTAP+/+ cells, FIG. 1, read-out: IC50 of the CDK4 inhibitor) read?
Its pIC50 is 5.74.

What about the pIC50 (MTAP+/+ MiaPaCa-2 cells; MIA PaCa-2, MTAP+/+ cells, 1.7 μM alanosine and 20 μM MTA, read-out: IC50 of the CDK4 inhibitor together with the alanosine and with MTA) of the same compound?
The pIC50 was 5.21.

What about the pIC50 (MTAP+/+ MiaPaCa-2 cells; MIA PaCa-2, MTAP+/+ cells, 1.7 μM alanosine and 20 μM adenine, read-out: IC50 of the CDK4 inhibitor together with the alanosine and with adenine) of the same compound?
The pIC50 was 5.25.

What about the pIC50 (MTAP+/+ MiaPaCa-2 cells; MIA PaCa-2, MTAP+/+ cells, 20 μM MTA, read-out: IC50 of the CDK4 inhibitor together with the MTA) of the same compound?
The pIC50 was 5.08.

And the pIC50 (MTAP+/+ MiaPaCa-2 cells; MIA PaCa-2, MTAP+/+ cells, 20 μM adenine, read-out: IC50 of the CDK4 inhibitor together with the adenine)?
The pIC50 was 5.13.

What about the pIC50 (MTAP+/+ MiaPaCa-2 cells; MIA PaCa-2, MTAP+/+ cells, Examples 3 and 5, FIG. 2, 4, read-out: IC50 of the CDK4 inhibitor alone) of the same compound?
The pIC50 was 5.36.

And the pIC50 (MTAP+/+ MiaPaCa-2 cells; MIA PaCa-2, MTAP+/+ cells, with 1.7 μM (IC20) alanosine, read-out: IC50 of the CDK4 inhibitor together with the alanosine)?
The pIC50 was 6.00.

And the pIC50 (MTAP+/+ MiaPaCa-2 cells; MIA PaCa-2, MTAP+/+ cells, with thymidine 20 μM and 20 nM (IC20) MTX, read-out: IC50 of the CDK4 inhibitor together with MTX)?
The pIC50 was 5.46.

And the pIC50 (MTAP+/+ MiaPaCa-2 cells; MIA PaCa-2, MTAP+/+ cells, with thymidine 20 μM, Example 7, FIG. 6, read-out: IC50 of the CDK4 inhibitor alone)?
The pIC50 was 5.49.

What about the pIC50 (MTAP-/- MiaPaCa-2 cells; MIA PaCa-2, Example 2, first experiment, CDK4 inhibitor alone, MTAP-/- cells, FIG. 1, read-out: IC50 of the CDK4 inhibitor) of the same compound?
The pIC50 was 5.81.

What about the pIC50 (MTAP-/- MiaPaCa-2 cells; MIA PaCa-2, MTAP-/- cells, 1.7 μM alanosine and 20 μM MTA, read-out: IC50 of the CDK4 inhibitor together with the alanosine and with MTA) of the same compound?
The pIC50 was 6.19.

And the pIC50 (MTAP-/- MiaPaCa-2 cells; MIA PaCa-2, MTAP-/- cells, 1.7 μM alanosine and 20 μM adenine, read-out: IC50 of the CDK4 inhibitor together with the alanosine and with adenine)?
The pIC50 was 5.61.

What about the pIC50 (MTAP-/- MiaPaCa-2 cells; MIA PaCa-2, MTAP-/- cells, 20 μM MTA, read-out: IC50 of the CDK4 inhibitor together with the MTA) of the same compound?
The pIC50 was 5.77.

And the pIC50 (MTAP-/- MiaPaCa-2 cells; MIA PaCa-2, MTAP-/- cells, 20 μM adenine, read-out: IC50 of the CDK4 inhibitor together with the adenine)?
Its pIC50 is 6.02.

What about the pIC50 (MTAP-/- MiaPaCa-2 cells; MIA PaCa-2, MTAP-/- cells, Examples 4 and 6, FIG. 3, 5, read-out: IC50 of the CDK4 inhibitor alone) of the same compound?
The pIC50 was 5.89.

And the pIC50 (MTAP-/- MiaPaCa-2 cells; MIA PaCa-2, MTAP-/- cells, with 1.7 μM (IC20) alanosine, read-out: IC50 of the CDK4 inhibitor together with the alanosine)?
Its pIC50 is 6.54.

What about the pIC50 (MTAP-/- MiaPaCa-2 cells; MIA PaCa-2, MTAP-/- cells, with thymidine 20 μM and 20 nM (IC20) MTX, read-out: IC50 of the CDK4 inhibitor together with MTX) of the same compound?
The pIC50 was 6.10.

What about the pIC50 (MTAP-/- MiaPaCa-2 cells; MIA PaCa-2, MTAP-/- cells, with thymidine 20 μM, Example 8, FIG. 7, read-out: IC50 of the CDK4 inhibitor alone) of the same compound?
Its pIC50 is 5.89.

What does the source list for Nc1ncnc2nc[nH]c12 [adenine]?
Rescue of the alanosine shift of the IC50 of the CDK4 inhibitor (MTAP+/+ MiaPaCa-2 cells; MTAP+/+ cells, 20 μM rescue substrate): rescued; Rescue of the alanosine shift of the IC50 of the CDK4 inhibitor (MTAP-/- MiaPaCa-2 cells; MTAP-/- cells, 20 μM rescue substrate): rescued

N[C@@H](CN(O)N=O)C(=O)O [alanosine] was tested. Which IC20 (MiaPaCa-2 cells) did it give?
Its IC20 is 1.7 µM.
